Test results reported in PubChem BioAssay (NCI).
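1) Cells in 96-well plates. 2) Compound, 48 h, 5 concentrations. 3) Linear interpolation between surrounding doses. 4) Unreached endpoint = highest concentration. GI50 is the concentration that inhibits growth by half. TGI marks complete inhibition of growth.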

How the values were obtained:
Test in all cases: NCI-60 cell line screen, 48 h
[1] = test system: COLO 205 colon
[2] = test system: MDA-MB-231 breast
[3] = test system: SK-MEL-28 melanoma
[4] = test system: IGROV1 ovarian
[5] = test system: MALME-3M melanoma
[6] = test system: EKVX NSCLC
[7] = test system: SW-620 colon
[8] = test system: OVCAR-3 ovarian
[9] = test system: SNB-75 CNS
[10] = test system: NCI-H522 lung
[11] = test system: HOP-62 NSCLC
[12] = test system: NCI-H226 lung
[13] = test system: NCI-H460 lung
[14] = test system: KM12 colon
[15] = test system: MCF7 breast
[16] = test system: A498 renal
[17] = test system: PC-3 prostate
[18] = test system: M14 melanoma
[19] = test system: SN12C renal
[20] = test system: HCC-2998 colon
[21] = test system: U251 CNS
[22] = test system: HOP-92 NSCLC
[23] = test system: DU-145 prostate
[24] = test system: ACHN renal
[25] = test system: RPMI-8226 leukemia
[26] = test system: MOLT-4 leukemia
[27] = test system: HCT-116 colon
[28] = test system: HCT-15 colon
[29] = test system: CCRF-CEM leukemia
[30] = test system: OVCAR-5 ovarian
[31] = test system: MDA-MB-435
[32] = test system: K-562 leukemia
[33] = test system: SK-MEL-2 melanoma
[34] = test system: SNB-19 CNS
[35] = test system: SK-MEL-5 melanoma
[36] = test system: NCI-H23 lung
[37] = test system: SF-268 CNS
[38] = test system: CAKI-1 renal
[39] = test system: HS 578T breast
[40] = test system: LOX IMVI melanoma
[41] = test system: UACC-257 melanoma
[42] = test system: OVCAR-8 ovarian
[43] = test system: SF-295 CNS
[44] = test system: BT-549 breast
[45] = test system: SF-539 CNS
[46] = test system: OVCAR-4 ovarian
[47] = test system: HT29 colon
[48] = test system: A549 NSCLC
[49] = test system: HL-60(TB) leukemia
[50] = test system: NCI/ADR-RES ovarian
[51] = test system: T-47D breast
[52] = test system: 786-0 renal
[53] = test system: UACC-62 melanoma
[54] = test system: TK-10 renal
[55] = test system: UO-31 renal
[56] = test system: RXF 393 renal
[57] = test system: SK-OV-3 ovarian

Structure (SMILES): CC(C)(/C=C(\C#N)C(=O)N1CCC[C@@H](n2nc(-c3ccc(Oc4ccccc4)cc3F)c3c(N)ncnc32)C1)N1CCN(C2COC2)CC1
- GI50 [1]: 5.71 µM
- TGI [1]: 24.3 µM
- GI50 [2]: 10.2 µM
- TGI [2]: 27.7 µM
- GI50 [3]: 9.71 µM
- TGI [3]: 22 µM
- GI50 [4]: 4.3 µM
- TGI [4]: 16.6 µM
- GI50 [5]: 6.07 µM
- TGI [5]: 19.5 µM
- GI50 [6]: 6.03 µM
- TGI [6]: 19.2 µM
- GI50 [7]: 12.4 µM
- TGI [7]: 31.3 µM
- GI50 [8]: 10.5 µM
- TGI [8]: 23.2 µM
- GI50 [9]: 5.98 µM
- TGI [9]: 20.7 µM
- GI50 [10]: 2.8 µM
- TGI [10]: 17.7 µM
- GI50 [11]: 10.1 µM
- TGI [11]: 25.7 µM
- GI50 [12]: 4.3 µM
- TGI [12]: 21.1 µM
- GI50 [13]: 6.3 µM
- TGI [13]: 20.8 µM
- GI50 [14]: 3.34 µM
- TGI [14]: 14 µM
- GI50 [15]: 2.57 µM
- TGI [15]: 12.8 µM
- GI50 [16]: 1.78 µM
- TGI [16]: 6.25 µM
- GI50 [17]: 10.6 µM
- TGI [17]: 27.6 µM
- GI50 [18]: 4.82 µM
- TGI [18]: 18.8 µM
- GI50 [19]: 4.3 µM
- TGI [19]: 16.2 µM
- GI50 [20]: 15.4 µM
- TGI [20]: 31.5 µM
- GI50 [21]: 7.35 µM
- TGI [21]: 25.8 µM
- GI50 [22]: 2.8 µM
- TGI [22]: 11.1 µM
- GI50 [23]: 12.3 µM
- TGI [23]: 26.8 µM
- GI50 [24]: 4.53 µM
- TGI [24]: 17.1 µM
- GI50 [25]: 4.41 µM
- TGI [25]: 33.1 µM
- GI50 [26]: 2.94 µM
- TGI [26]: 13.7 µM
- GI50 [27]: 6.31 µM
- TGI [27]: 20.1 µM
- GI50 [28]: 6.11 µM
- TGI [28]: 21 µM
- GI50 [29]: 5.69 µM
- TGI [29]: > 100 µM
- GI50 [30]: 11.3 µM
- TGI [30]: 24.1 µM
- GI50 [31]: 4.81 µM
- TGI [31]: 17.3 µM
- GI50 [32]: 7.49 µM
- TGI [32]: > 100 µM
- GI50 [33]: 10.1 µM
- TGI [33]: 26.2 µM
- GI50 [34]: 8.09 µM
- TGI [34]: 20.6 µM
- GI50 [35]: 3.96 µM
- TGI [35]: 13.9 µM
- GI50 [36]: 11 µM
- TGI [36]: 30.9 µM
- GI50 [37]: 5.37 µM
- TGI [37]: 21.8 µM
- GI50 [38]: 6.39 µM
- TGI [38]: 18.8 µM
- GI50 [39]: 4.67 µM
- TGI [39]: 23.8 µM
- GI50 [40]: 3.37 µM
- TGI [40]: 15.2 µM
- GI50 [41]: 5.58 µM
- TGI [41]: 20.4 µM
- GI50 [42]: 10.8 µM
- TGI [42]: 34.3 µM
- GI50 [43]: 6.39 µM
- TGI [43]: 19.6 µM
- GI50 [44]: 5.42 µM
- TGI [44]: 18.6 µM
- GI50 [45]: 5.95 µM
- TGI [45]: 19 µM
- GI50 [46]: 5.69 µM
- TGI [46]: 20.4 µM
- GI50 [47]: 4.69 µM
- TGI [47]: 23.6 µM
- GI50 [48]: 6.57 µM
- TGI [48]: 25.1 µM
- GI50 [49]: 5.28 µM
- TGI [49]: 32.5 µM
- GI50 [50]: 14.7 µM
- TGI [50]: 43.7 µM
- GI50 [51]: 4.77 µM
- TGI [51]: 29.5 µM
- GI50 [52]: 4.12 µM
- TGI [52]: 18.9 µM
- GI50 [53]: 3.04 µM
- TGI [53]: 14.3 µM
- GI50 [54]: 4.12 µM
- TGI [54]: 15.9 µM
- GI50 [55]: 2.82 µM
- TGI [55]: 10.6 µM
- GI50 [56]: 2.31 µM
- TGI [56]: 7.66 µM

Structure (SMILES): S=c1[nH]c(=S)c2cc3ccccc3nc2[nH]1
- GI50 [1]: 20.3 µM
- TGI [1]: > 100 µM
- GI50 [2]: 51 µM
- TGI [2]: > 100 µM
- GI50 [3]: > 100 µM
- TGI [3]: > 100 µM
- GI50 [4]: 23 µM
- TGI [4]: > 100 µM
- GI50 [5]: 14.6 µM
- TGI [5]: 45.1 µM
- GI50 [6]: 31 µM
- TGI [6]: > 100 µM
- GI50 [7]: 26.8 µM
- TGI [7]: > 100 µM
- GI50 [8]: 12.9 µM
- TGI [8]: 95.8 µM
- GI50 [9]: > 100 µM
- TGI [9]: > 100 µM
- GI50 [10]: 20.5 µM
- TGI [10]: 51.7 µM
- GI50 [11]: > 100 µM
- TGI [11]: > 100 µM
- GI50 [12]: > 100 µM
- TGI [12]: > 100 µM
- GI50 [13]: 73.2 µM
- TGI [13]: > 100 µM
- GI50 [14]: 29.5 µM
- TGI [14]: > 100 µM
- GI50 [15]: 5.33 µM
- TGI [15]: > 100 µM
- GI50 [16]: > 100 µM
- TGI [16]: > 100 µM
- GI50 [17]: 4.74 µM
- TGI [17]: > 100 µM
- GI50 [18]: > 100 µM
- TGI [18]: > 100 µM
- GI50 [19]: > 100 µM
- TGI [19]: > 100 µM
- GI50 [20]: 92.3 µM
- TGI [20]: > 100 µM
- GI50 [21]: 5.98 µM
- TGI [21]: 41.6 µM
- GI50 [22]: 15.4 µM
- TGI [22]: > 100 µM
- GI50 [23]: > 100 µM
- TGI [23]: > 100 µM
- GI50 [24]: > 100 µM
- TGI [24]: > 100 µM
- GI50 [25]: 7.96 µM
- TGI [25]: > 100 µM
- GI50 [26]: 4.68 µM
- TGI [26]: > 100 µM
- GI50 [27]: 69.8 µM
- TGI [27]: > 100 µM
- GI50 [28]: > 100 µM
- TGI [28]: > 100 µM
- GI50 [29]: 5.21 µM
- TGI [29]: > 100 µM
- GI50 [30]: > 100 µM
- TGI [30]: > 100 µM
- GI50 [31]: 31.1 µM
- TGI [31]: > 100 µM
- GI50 [32]: > 100 µM
- TGI [32]: > 100 µM
- GI50 [33]: 26.1 µM
- TGI [33]: 84.7 µM
- GI50 [34]: 35.5 µM
- TGI [34]: > 100 µM
- GI50 [35]: 30 µM
- TGI [35]: > 100 µM
- GI50 [36]: 35 µM
- TGI [36]: > 100 µM
- GI50 [37]: 39.4 µM
- TGI [37]: > 100 µM
- GI50 [38]: > 100 µM
- TGI [38]: > 100 µM
- GI50 [39]: 71.3 µM
- TGI [39]: > 100 µM
- GI50 [40]: > 100 µM
- TGI [40]: > 100 µM
- GI50 [41]: > 100 µM
- TGI [41]: > 100 µM
- GI50 [42]: > 100 µM
- TGI [42]: > 100 µM
- GI50 [43]: > 100 µM
- TGI [43]: > 100 µM
- GI50 [44]: 35.4 µM
- TGI [44]: > 100 µM
- GI50 [45]: > 100 µM
- TGI [45]: > 100 µM
- GI50 [46]: > 100 µM
- TGI [46]: > 100 µM
- GI50 [57]: > 100 µM
- TGI [57]: > 100 µM
- GI50 [47]: > 100 µM
- TGI [47]: > 100 µM
- GI50 [48]: > 100 µM
- TGI [48]: > 100 µM
- GI50 [49]: 38 µM
- TGI [49]: > 100 µM
- GI50 [50]: > 100 µM
- TGI [50]: > 100 µM
- GI50 [51]: 11.1 µM
- TGI [51]: > 100 µM
- GI50 [52]: > 100 µM
- TGI [52]: > 100 µM
- GI50 [53]: 69.5 µM
- TGI [53]: > 100 µM
- GI50 [54]: 94.2 µM
- TGI [54]: > 100 µM
- GI50 [55]: > 100 µM
- TGI [55]: > 100 µM
- GI50 [56]: > 100 µM
- TGI [56]: > 100 µM
